Drawing on ChEMBL document CHEMBL1150191, “Isolation of Eupalmerin, a Minor Cembranoid Diterpene from the Caribbean Gorgonian Eunicea mammosa” (J Nat Prod, 1991), this text covers CC50 for one compound.

Converted amounts (≈) assume the structure as drawn.

The nature of the data set: Cytotoxicity against CHOK1 cells. The format is cell-based, Cricetulus griseus. Particulars: chinese hamster, CHO-K1 cells; read-out: ED50 (the source's name).

Take `C=C1C(=O)O[C@H]2[C@H](O)[C@@H](C)CCC/C(C)=C/CC[C@@]3(C)O[C@H]3C[C@@H]12` [EUPALMERIN]: the CC50 was found to be 5.46 µg/mL (≈ 16.3 µM).
